From patent publication US9133207B2, “Tetrandrine derivatives with substituted 5-carbon, preparation method and use thereof” (Hangzhou Bensheng Pharmaceutical Co., Ltd., priority 2011, dated 2015)
Converted amounts (≈) assume the structure as drawn.

Columns and labels:
PC-3 (prostate cancer) = experiment: Solid tumor cell growth inhibition, MTT, 72 h (Example 7); type: cell-based, human; conditions: Homo sapiens; 72 h, MTT, PC-3
Method: (§1) Human solid tumor cell lines: Hep-2 (laryngeal carcinoma), A549 (human lung cancer), CaES-17 (esophageal cancer cell), PC-3 (prostate cancer), CNE (nasopharyngeal carcinoma cell) and SK-OV-3 (ovarian cancer cell), all of which are purchased from China Center For Type Culture Collection; RKO (human colon adenocarcinoma cell), MGC 803 (human gastric cancer cell), MG63 (osteosarcoma), and U87 MG (malignant glioma cell), all of which are purchased from Fuxiang Bio-tech Co. Ltd., Shanghai, China; PANC-1 (pancreatic cancer), Huh? (human liver cancer cell), Becap37 (human breast cancer cell), and Hela (human cervical cancer cell), all of which are donated by Cancer Research Institute of Zhejiang University, China.
(§2) Reagents: the same as in Example 5.
(§3) Obtaining 4000 well-growing human solid tumor cells and inoculating them into wells of a 96-well cell culture plate. The culture medium is DMEM High Glucose cell culture medium containing 10% fetal bovine serum. The plate is placed in a carbon dioxide cell incubator (5% CO2) at 37° C. and incubated for 24 hours. After been added with tetrandrine derivatives of different concentration and mixing uniformly, the plate is placed in a carbon dioxide cell incubator (5% CO2) at 37° C. and incubated for 72 hours. Then the viable cell concentration is determined by the MTT method and the cell viability (%) after drug treatment is calculated. In this experiment, the cell viability of control group (not treated with any compound) is set as 100%.

[1] = tested on: PANC-1 (pancreatic cancer); experiment: as above; type: cell-based, human; conditions: Homo sapiens; 72 h, MTT, PANC-1
Method: as §1, §2, §3

MG63 (osteosarcoma) = experiment: as above; type: cell-based, human; conditions: Homo sapiens; 72 h, MTT, MG-63
Method: as §1, §2, §3

[2] = tested on: CaES-17 (esophageal cancer cell); experiment: as above; type: cell-based, human; conditions: Homo sapiens, CaEs17; 72 h, MTT, CAES-17
Method: as §1, §2, §3

[3] = tested on: H9 (acute lymphoblastic leukemia, ALL); experiment: Leukemia cell growth inhibition, MTT, 72 h (Example 5); type: cell-based, human; conditions: Homo sapiens; 72 h, MTT
Excerpt: (§4) Leukemia cell lines: leukemia cell lines: K562/adr (drug-resistant, chronic myeloid leukemia, CML), NB4 (acute promyelocytic leukemia, AML), Kasumi-1 (acute myeloid leukemia M2 type, AML-M2), Jurkat (acute lymphoblastic leukemia, ALL), all of which are donated by Cancer Research Institute of Zhejiang University, China; and H9 (acute lymphoblastic leukemia, ALL), which is purchased from China Center for Type Culture Collection.
(§5) Reagents: The standard sample of tetrandrine (TTD) is purchased from Ci Yuan Biotechnology Co., Ltd., Shaanxi, China; and the 5-substituted tetrandrine derivatives of the present invention.
(§6) Obtaining 6000 well-growing leukemia cells and inoculating them into wells of a 96-well cell culture plate. The culture medium is a 1640 cell culture medium containing 10% fetal bovine serum. After adding the tetrandrine derivatives of different concentrations and mixing uniformly, placing the plate in a carbon dioxide cell incubator (5% CO2) at 37° C. and incubating for 72 hours. Then the viable cell concentration is determined by the MTT method.

[4] = tested on: Jurkat (acute lymphoblastic leukemia, ALL); experiment: as above; type: cell-based, human; conditions: Homo sapiens, Jurkat; 72 h, MTT
Excerpt: as §4, §5, §6

[5] = tested on: Kasumi-1 (acute myeloid leukemia M2 type, AML-M2); experiment: as above; type: cell-based, human; conditions: Homo sapiens, Kasumi 1
Excerpt: as §4, §5, §6

[6] = tested on: K562/adr (drug-resistant, chronic myeloid leukemia, CML); experiment: as above; type: cell-based, human; conditions: for IC50 / IC90: Homo sapiens, K562/Adr, 72 h, MTT
Excerpt: as §4, §5, §6

A549 (human lung cancer) = experiment: Solid tumor cell growth inhibition, MTT, 72 h (Example 7); type: cell-based; conditions: Homo sapiens; 72 h, MTT, A549
Method: as §1, §2, §3

[7] = tested on: MGC 803 (human gastric cancer cell); experiment: as above; type: cell-based; conditions: Homo sapiens
Method: as §1, §2, §3

[8] = tested on: Becap37 (human breast cancer cell); experiment: as above; type: cell-based; conditions: Homo sapiens; 72 h, MTT, Becap-37
Method: as §1, §2, §3

[9] = tested on: RKO (human colon adenocarcinoma cell); experiment: as above; type: cell-based; conditions: Homo sapiens; 72 h, MTT, RKO
Method: as §1, §2, §3

[10] = tested on: Huh7 (human liver cancer cell); experiment: as above; type: cell-based; conditions: Homo sapiens; 72 h, MTT, Huh-7
Method: as §1, §2, §3

[11] = tested on: RPMI8226 (multiple myeloma); experiment: Multiple myeloma cell growth inhibition, MTT, 72 h (Example 6); type: cell-based, human; conditions: for IC50 / IC90: Homo sapiens, RPMI-8226, 72 h, MTT, RPMI8226
Method: Multiple myeloma and lymphoma cell lines: RPMI8226 (multiple myeloma), purchased from Fuxiang Bio-tech Co. Ltd., Shanghai, China.
as §2
Obtaining 6000 well-growing leukemia cells and inoculating them into wells of a 96-well cell culture plate. The culture medium is a 1640 cell culture medium containing 10% fetal bovine serum. After adding the tetrandrine derivatives of different concentrations and mixing uniformly, placing the plate in a carbon dioxide cell incubator (5% CO2) at 37° C. and incubated for 72 hours. Then the viable cell concentration is determined by the MTT method.

[12] = tested on: NB4 (acute promyelocytic leukemia, AML); experiment: Leukemia cell growth inhibition, MTT, 72 h (Example 5); type: cell-based, human; conditions: Homo sapiens; 72 h, MTT
Excerpt: as §4, §5, §6

| SMILES | IC50 [1] [µg/mL] | IC90 [1] [µg/mL] | IC50 (MG63 (osteosarcoma)) [µg/mL] | IC90 (MG63 (osteosarcoma)) [µg/mL] | IC50 [2] [µg/mL] | IC90 [2] [µg/mL] | IC50 [3] [µg/mL] | IC90 [3] [µg/mL] | IC50 [4] [µg/mL] | IC90 [4] [µg/mL] | IC50 [5] [µg/mL] | IC90 [5] [µg/mL] | IC50 [6] [µg/mL] | IC90 [6] [µg/mL] | IC50 (A549 (human lung cancer)) [µg/mL] | IC90 (A549 (human lung cancer)) [µg/mL] | IC50 [7] [µg/mL] | IC90 [7] [µg/mL] | IC50 [8] [µg/mL] | IC90 [8] [µg/mL] | further results |
| --- | --- | --- | --- | --- | --- | --- | --- | --- | --- | --- | --- | --- | --- | --- | --- | --- | --- | --- | --- | --- | --- |
| COc1ccc2cc1Oc1ccc(cc1)C[C@H]1c3cc(c(OC)cc3CCN1C)Oc1c(OC)c(OC)c(COC(=O)c3ccc(N(C)C)cc3)c3c1[C@H](C2)N(C)CC3 [BS-TE-204] | 6.47 (≈ 8.09 µM) | 11.1 (≈ 13.9 µM) | 1.72 (≈ 2.15 µM) | 4.69 (≈ 5.86 µM) | 6.81 (≈ 8.51 µM) | 16.6 (≈ 20.8 µM) | 2.88 (≈ 3.6 µM) | 5.84 (≈ 7.3 µM) | 2.66 (≈ 3.33 µM) | 9.06 (≈ 11.3 µM) | 2.32 (≈ 2.9 µM) | 7.5 (≈ 9.38 µM) | 1.47 (≈ 1.84 µM) | 14.5 (≈ 18.1 µM) | 3.12 (≈ 3.9 µM) | 14.2 (≈ 17.7 µM) | 2.57 (≈ 3.21 µM) | 9 (≈ 11.3 µM) | 3.66 (≈ 4.58 µM) | 6.19 (≈ 7.74 µM) | IC50 (PC-3 (prostate cancer)): 6.55 µg/mL (≈ 8.19 µM); IC90 (PC-3 (prostate cancer)): 9 µg/mL (≈ 11.3 µM); IC50 [9]: 3.12 µg/mL (≈ 3.9 µM); IC90 [9]: 4.7 µg/mL (≈ 5.88 µM); IC50 [10]: 2.08 µg/mL (≈ 2.6 µM); IC90 [10]: 3.88 µg/mL (≈ 4.85 µM); IC50 [11]: 0.47 µg/mL (≈ 0.588 µM); IC90 [11]: 1.92 µg/mL (≈ 2.4 µM) |
| COc1ccc2cc1Oc1ccc(cc1)C[C@H]1c3cc(c(OC)cc3CCN1C)Oc1c(OC)c(OC)c(CN3CC=CC3)c3c1[C@H](C2)N(C)CC3 [BS-TE-329] | > 10 | > 10 | 6.87 (≈ 9.76 µM) | 35.6 (≈ 50.6 µM) | 7.2 (≈ 10.2 µM) | 26.5 (≈ 37.6 µM) | 1.19 (≈ 1.69 µM) | 2 (≈ 2.84 µM) | 0.91 (≈ 1.29 µM) | 3.31 (≈ 4.7 µM) | 0.5 (≈ 0.71 µM) | 3.4 (≈ 4.83 µM) | 0.1 (≈ 0.142 µM) | 1.33 (≈ 1.89 µM) | 2.36 (≈ 3.35 µM) | 4.77 (≈ 6.78 µM) | 1.26 (≈ 1.79 µM) | 1.82 (≈ 2.59 µM) | 1.62 (≈ 2.3 µM) | 2.48 (≈ 3.52 µM) | IC50 [12]: 2.05 µg/mL (≈ 2.91 µM); IC90 [12]: 3.9 µg/mL (≈ 5.54 µM); anti-K562/adr activity increase over tetrandrine ([6]; compared with tetrandrine): ~4 fold; IC50 [10]: 8.16 µg/mL (≈ 11.6 µM); IC90 [10]: 15.9 µg/mL (≈ 22.5 µM); IC50 [11]: 0.004 µg/mL (≈ 0.00568 µM); IC90 [11]: 0.29 µg/mL (≈ 0.412 µM); anti-RPMI8226 activity increase over tetrandrine ([11]; compared with tetrandrine): ~90 fold |
| COc1ccc2cc1Oc1ccc(cc1)C[C@H]1c3cc(c(OC)cc3CCN1C)Oc1c(OC)c(OC)c(Cn3cccn3)c3c1[C@H](C2)N(C)CC3 [BS-TE-330] | 6.17 (≈ 8.78 µM) | 9.8 (≈ 13.9 µM) | 1.96 (≈ 2.79 µM) | 4.38 (≈ 6.23 µM) | 2.4 (≈ 3.41 µM) | 7.94 (≈ 11.3 µM) | 2.03 (≈ 2.89 µM) | 4.03 (≈ 5.73 µM) | 2.37 (≈ 3.37 µM) | 5.51 (≈ 7.84 µM) | 1.45 (≈ 2.06 µM) | 6.95 (≈ 9.89 µM) | 0.56 (≈ 0.797 µM) | 2.83 (≈ 4.03 µM) | 5.44 (≈ 7.74 µM) | 16 (≈ 22.7 µM) | 1.61 (≈ 2.29 µM) | 6.48 (≈ 9.22 µM) | 6 (≈ 8.54 µM) | 12 (≈ 17.1 µM) | IC50 (PC-3 (prostate cancer)): 3.68 µg/mL (≈ 5.24 µM); IC90 (PC-3 (prostate cancer)): 7.59 µg/mL (≈ 10.8 µM); IC50 [9]: 2.5 µg/mL (≈ 3.56 µM); IC90 [9]: 4.64 µg/mL (≈ 6.6 µM); IC50 [10]: 2.96 µg/mL (≈ 4.21 µM); IC90 [10]: 4.9 µg/mL (≈ 6.97 µM); IC50 [11]: 0.18 µg/mL (≈ 0.256 µM); IC90 [11]: 1.22 µg/mL (≈ 1.74 µM) |
| COc1ccc2cc1Oc1ccc(cc1)C[C@H]1c3cc(c(OC)cc3CCN1C)Oc1c(OC)c(OC)c(CNCc3ccccn3)c3c1[C@H](C2)N(C)CC3 [BS-TE-352] | 5.79 (≈ 7.79 µM) | 9 (≈ 12.1 µM) | 1.26 (≈ 1.7 µM) | 4.35 (≈ 5.86 µM) | 3.06 (≈ 4.12 µM) | 9.92 (≈ 13.4 µM) | 1.31 (≈ 1.76 µM) | 4.5 (≈ 6.06 µM) | 1.38 (≈ 1.86 µM) | 4.74 (≈ 6.38 µM) | 1.1 (≈ 1.48 µM) | 4.84 (≈ 6.51 µM) | 0.63 (≈ 0.848 µM) | 3 (≈ 4.04 µM) | 1.35 (≈ 1.82 µM) | 4.58 (≈ 6.16 µM) | 4.38 (≈ 5.9 µM) | > 10 | 1.4 (≈ 1.88 µM) | 4.85 (≈ 6.53 µM) | IC50 (PC-3 (prostate cancer)): 4.53 µg/mL (≈ 6.1 µM); IC90 (PC-3 (prostate cancer)): 7.51 µg/mL (≈ 10.1 µM); IC50 [12]: 1.05 µg/mL (≈ 1.41 µM); IC90 [12]: 3.88 µg/mL (≈ 5.22 µM); IC50 [10]: 3.61 µg/mL (≈ 4.86 µM); IC90 [10]: 4.98 µg/mL (≈ 6.7 µM); IC50 [11]: 0.09 µg/mL (≈ 0.121 µM); IC90 [11]: 0.76 µg/mL (≈ 1.02 µM) |
| COCc1c2c3c(c(OC)c1OC)Oc1cc4c(cc1OC)CCN(C)[C@H]4Cc1ccc(cc1)Oc1cc(ccc1OC)C[C@@H]3N(C)CC2 [BS-TE-420] | > 10 | > 10 | 2.72 (≈ 4.08 µM) | 9.89 (≈ 14.8 µM) | 4.72 (≈ 7.08 µM) | 18.9 (≈ 28.4 µM) | 4.4 (≈ 6.6 µM) | 7.68 (≈ 11.5 µM) | 5.21 (≈ 7.81 µM) | 16 (≈ 24 µM) | 2.16 (≈ 3.24 µM) | 9.83 (≈ 14.7 µM) | 0.82 (≈ 1.23 µM) | 3.85 (≈ 5.77 µM) | 4.41 (≈ 6.61 µM) | 12.2 (≈ 18.3 µM) | 5.01 (≈ 7.51 µM) | 7.56 (≈ 11.3 µM) | 5.6 (≈ 8.4 µM) | 11.5 (≈ 17.2 µM) | IC50 (PC-3 (prostate cancer)): 5.68 µg/mL (≈ 8.52 µM); IC90 (PC-3 (prostate cancer)): 10.9 µg/mL (≈ 16.4 µM); IC50 [10]: 4.22 µg/mL (≈ 6.33 µM); IC90 [10]: 7.06 µg/mL (≈ 10.6 µM); IC50 [11]: 0.29 µg/mL (≈ 0.435 µM); IC90 [11]: 2.25 µg/mL (≈ 3.37 µM) |
